Legend:
[1] = Chemical stability studies in aqueous media, monitored by HPLC; format: physicochemical; conditions: for stability in 50 mM phosphate buffer at pH 7.4 or aqueous 0.01 N NaOH: HPLC Method 1; for stability in aqueous 0.01 N HCl and de-ionized water at pH 5.6: freshly prepared solutions
Experimental: (2) de-ionized water at pH 5.6;
(3) 50 mM phosphate buffer at pH 7.4; and […]

[2] = pH 7.4; cited from earlier work
[3] = In vivo pharmacokinetic (PK) and blood brain barrier (BBB) studies, cassette dosing; design: species or system male Sprague-Dawley rats; conditions: tail vein injection, rat; for AUC brain* / AUC: normalized to 2 mg/kg dose; for Kp at 5 min / Kp / AUC: male, Sprague-Dawley; for Kp at 5 min / Kp: brain/plasma, intravenous; for Kp at 5 min: read-out: Brain/Plasma ratio at 5 min; for Kp: read-out: AUC brain/AUC plasma; for AUC: iv, plasma
Experimental: In vivo pharmacokinetic (PK) and blood brain barrier (BBB) studies were conducted in male Sprague-Dawley rats using cassette dosing. The topic of cassette dosing has been reviewed by Manitpisitkul, P. and White, R. E. (August 2004), Drug Discovery, Vol 9. No. 15, pp. 652-658. The mode of administration was through tail vein injection.

[4] = format: physicochemical
Excerpt: The term “log kBMC” refers to the logarithm of the chromatographic capacity factor (reference retention time) in BMC, a special type of HPLC (Escuder-Gilabert, L., et al., Journal of Chromatography B, 2004, 807, 193-201). This analytical technique was used to correlate the log kBMC of 31 reference drug substances with known experimentally determined log BB values. A linear regression mathematical equation log BB=a(log kBMC)+b was obtained from these reference drug substances wherein a and b are constants. The log kBMC of the compounds of the present invention was measured by BMC. The experimental log kBMC of the compounds of the present invention was fit into the log BB=a(log KBMC) b equation to obtain a calculated log BB value. The calculated log BB is an indicator of the BBB penetration property of the compounds of the present invention.
FIG. 1 provides a table illustrating the physical properties of selected compounds of formula (I) according to the present invention. […] The chromatographic capacity factor kBMC of 31 reference drug substances with known experimentally determined log BB values were recorded (FIGS. 2 and 3). […] We used the above equation to compute a calculated log BB value of the compounds of the present invention as an estimate of the BBB penetration properties of the compounds. Deferiprone is known to penetrate the BBB and has a calculated log BB value of −1.05. […]

[5] = prior-art / published chelators; 1×10^−5 M chelator and 1×10^−6 M Fe(III); cited from earlier work

| SMILES | AUC brain* [3] [ng·h/mL] | Kp at 5 min [3] | Kp [3] | AUC [3] [ng·h/mL] | Kα [3] [h⁻¹] | Kβ [3] [h⁻¹] | t1/2α [3] [h] | t1/2β [3] [h] | other results |
| --- | --- | --- | --- | --- | --- | --- | --- | --- | --- |
| Cn1cc(O)c(=O)cc1CF [compound (vii), 2-fluoromethyl-5-hydroxy-1-methyl-1H-pyridin-4-one] | – | – | – | – | – | – | – | – | fraction of compound remaining ([1]; 50 mM phosphate buffer at pH 7.4, after 5 hrs): about half; time stable in MeOH ([1]; MeOH): at least 4 hrs; stability in aqueous 0.01 N NaOH ([1]; aqueous 0.01 N NaOH): decomposed rapidly; stability in pH 7.4 phosphate buffer and 0.01 M sodium hydroxide [1]: unstable |
| Cc1cc(=O)c(O)c(C(F)F)n1C [(iv), 2-difluoromethyl-3-hydroxy-1,6-dimethyl-1H-pyridin-4-one] | – | – | – | – | – | – | – | – | stability in 50 mM phosphate buffer at pH 7.4 or aqueous 0.01 N NaOH [1]: almost instantaneously hydrolysed to their corresponding aldehydes; stability in aqueous 0.01 N HCl and de-ionized water at pH 5.6 [1]: stable |
| Cc1cc(=O)c(O)c(CF)n1C [compound (C)] | – | – | – | – | – | – | – | – | stability in aqueous solution [1]: unstable |
| Cc1c(O)c(=O)ccn1C [Deferiprone, 3-hydroxy-1,2-dimethyl-1H-pyridin-4-one] | 860 | 0.45 | 0.79 | 1080 | 1.36 | 0.215 | 0.51 | 3.22 | distribution coefficient [2]: 0.17; calculated log BB [4]: −1.05 |
| Cn1ccc(=O)c(O)c1C(F)F [(v), 2-difluoromethyl-3-hydroxy-1-methyl-1H-pyridin-4-one] | – | – | – | – | – | – | – | – | stability in 50 mM phosphate buffer at pH 7.4 or aqueous 0.01 N NaOH [1]: almost instantaneously hydrolysed to their corresponding aldehydes; stability in aqueous 0.01 N HCl and de-ionized water at pH 5.6 [1]: stable; stability in pH 7.4 phosphate buffer and 0.01 M sodium hydroxide [1]: unstable |
| CNC(=O)c1c(O)c(=O)cc(C)n1C [CP502] | – | – | – | – | – | – | – | – | pFe(III) / pFe^3+ [5]: 21 |
| Cc1c(O)c(=O)c(CC(F)(F)F)cn1C [Apo6855, 3-Hydroxy-1,2-dimethyl-5-(2,2,2-trifluoro-ethyl)-1H-pyridin-4-one] | 580 | 0.5 | 0.65 | 890 | 2.37 | 0.136 | 0.29 | 5.10 | – |
| Cc1cc(=O)c(O)c(C(O)C(F)(F)F)n1C (stereo not drawn) [Apo6729, 3-hydroxy-1,6-dimethyl-2-(2,2,2-trifluoro-1-hydroxy-ethyl)-1H-pyridin-4-one] | – | – | – | – | – | – | – | – | time stable in 0.1N HCl, 50 mM phosphate buffer pH 7.4 and 0.1 N NaOH ([1]; 0.1N HCl, 50 mM phosphate buffer at pH 7.4, 0.1 N NaOH, room temperature): at least 21 hrs |
| Cn1cc(O)c(=O)cc1CF [(D)] | – | – | – | – | – | – | – | – | stability in aqueous solution [1]: unstable |
| Cn1ccc(=O)c(O)c1CC(F)(F)F [Apo6825, 3-hydroxy-1-methyl-2-(2,2,2-trifluoro-ethyl)-1H-pyridin-4-one] | 2730 | 0.46 | 0.6 | 4520 | 0.68 | 0.133 | 1.02 | 5.21 | – |

From patent US8673943B2, “Fluorinated derivatives of deferiprone” (Apotex Technologies Inc., priority 2007, dated 2014)
